The values that follow come from article PMC9686657, “Protection against Oxidative Stress and Metabolic Alterations by Synthetic Peptides Derived from Erythrina edulis Seed Protein” (Antioxidants, 2022).

Read-outs that look alike come from different tables or passages of the source. Ends that are not written are not given here. Peptide text beside a SMILES is read from it.

The subject of one series is SH-SY5Y cells. Put plainly: Cell viability, MTT assay. In kind it is cell-based, human. The note with it: basal conditions, highest concentration 100 µM, 24 h; data not shown. How it is done:
Human neuroblastoma SH-SY5Y cells were obtained from the American Type Culture Collection (ATCC, […], Rockville, MD, USA) and grown in RPMI-1640 medium supplemented with 10% FBS, 2 mM L-glutamine, 1 mM sodium pyruvate, 1 mM NEAA, and 50 μg/mL gentamicin in a humidified incubator containing 5% CO2 and 95% air at 37 °C.
The effects of pajuro-derived peptides on cell viability were determined using the MTT assay, following the protocol previously described by Palma-Albino et al.. SH-SY5Y cells were seeded (2 × 10^4 cells/well) onto 96-well plates in complete medium with 1% FBS and incubated at 37 °C for 16 h. After discarding the culture medium, the peptide sample was added (at concentration of 10, 25, and 100 µM), and the plate was incubated for 24 h. Upon removing the supernatant, a MTT solution (2 mg/mL) was added, and the plate was incubated for 60 min at 37 °C. After this time, the supernatant was discarded, and the formazan crystals were dissolved in dimetilsulfoxide (DMSO). The absorbance was measured at 570 nm in the Infinite M200 Pro plate reader (Tecan Group AG). Three independent runs were performed for each sample. The results were expressed as percentage of the control, considered as 100%.

The target of the next series is T1, ACE from rabbit lung (Oryctolagus cuniculus, UniProt P12822).
T1 construct: ACE from rabbit lung; purchased Sigma-Aldrich; host or cells: rabbit lung tissue
T1 sequence (P12822 34-1310): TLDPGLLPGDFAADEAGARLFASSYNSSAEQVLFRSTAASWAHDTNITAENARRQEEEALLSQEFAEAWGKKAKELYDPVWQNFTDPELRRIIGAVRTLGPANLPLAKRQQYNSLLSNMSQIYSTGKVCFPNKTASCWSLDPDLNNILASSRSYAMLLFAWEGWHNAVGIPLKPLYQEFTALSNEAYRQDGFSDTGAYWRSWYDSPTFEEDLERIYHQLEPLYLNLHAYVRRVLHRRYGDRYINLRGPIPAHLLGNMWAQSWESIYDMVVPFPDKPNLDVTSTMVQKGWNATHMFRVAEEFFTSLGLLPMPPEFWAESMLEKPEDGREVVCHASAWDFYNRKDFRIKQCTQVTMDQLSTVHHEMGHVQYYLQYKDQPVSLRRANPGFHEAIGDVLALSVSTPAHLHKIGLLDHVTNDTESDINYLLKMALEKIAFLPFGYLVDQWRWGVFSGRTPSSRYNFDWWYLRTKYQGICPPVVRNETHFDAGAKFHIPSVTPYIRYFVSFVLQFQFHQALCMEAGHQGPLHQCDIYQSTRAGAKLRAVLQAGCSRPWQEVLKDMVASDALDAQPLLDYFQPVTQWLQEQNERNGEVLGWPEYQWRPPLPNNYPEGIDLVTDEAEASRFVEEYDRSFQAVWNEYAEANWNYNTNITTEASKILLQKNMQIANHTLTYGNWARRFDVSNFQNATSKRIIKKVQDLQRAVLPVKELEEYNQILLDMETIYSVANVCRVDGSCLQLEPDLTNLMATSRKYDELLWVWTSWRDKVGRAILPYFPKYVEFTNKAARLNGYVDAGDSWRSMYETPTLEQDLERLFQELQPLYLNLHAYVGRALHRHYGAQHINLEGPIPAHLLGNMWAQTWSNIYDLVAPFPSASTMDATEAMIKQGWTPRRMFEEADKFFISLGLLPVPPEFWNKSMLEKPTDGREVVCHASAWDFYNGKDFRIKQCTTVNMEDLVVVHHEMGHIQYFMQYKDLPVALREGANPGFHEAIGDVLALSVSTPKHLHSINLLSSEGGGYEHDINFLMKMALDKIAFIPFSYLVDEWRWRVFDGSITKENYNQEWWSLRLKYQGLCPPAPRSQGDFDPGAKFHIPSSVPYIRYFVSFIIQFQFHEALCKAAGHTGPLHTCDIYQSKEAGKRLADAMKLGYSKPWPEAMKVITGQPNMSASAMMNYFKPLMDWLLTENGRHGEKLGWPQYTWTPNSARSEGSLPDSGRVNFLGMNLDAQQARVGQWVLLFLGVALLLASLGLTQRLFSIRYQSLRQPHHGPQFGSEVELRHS
Put plainly: ACE inhibitory activity (HHL substrate). In kind it is biochemical. The note with it: n.d. = activity not detected; mean ± SD; read-out: ACE Inhibition (IC50). How it is done:
The in vitro ACE inhibitory activity of peptides was measured following the methodology described by Hayakari et al., with some modifications. […] It was incubated at 37 °C for 60 min. […] Three independent runs were performed for each sample.

For a further series, the target named is α-glucosidase. The note with it: ref Vilcacundo et al. [46]; read-out: α-glucosidase inhibitory capacity (IC50); cited from earlier work.
For series [1], the target named is T2, DPP-IV (Homo sapiens, UniProt P27487).
T2 construct: purchased Sigma-Aldrich MAK203
T2 sequence (P27487 whole entry): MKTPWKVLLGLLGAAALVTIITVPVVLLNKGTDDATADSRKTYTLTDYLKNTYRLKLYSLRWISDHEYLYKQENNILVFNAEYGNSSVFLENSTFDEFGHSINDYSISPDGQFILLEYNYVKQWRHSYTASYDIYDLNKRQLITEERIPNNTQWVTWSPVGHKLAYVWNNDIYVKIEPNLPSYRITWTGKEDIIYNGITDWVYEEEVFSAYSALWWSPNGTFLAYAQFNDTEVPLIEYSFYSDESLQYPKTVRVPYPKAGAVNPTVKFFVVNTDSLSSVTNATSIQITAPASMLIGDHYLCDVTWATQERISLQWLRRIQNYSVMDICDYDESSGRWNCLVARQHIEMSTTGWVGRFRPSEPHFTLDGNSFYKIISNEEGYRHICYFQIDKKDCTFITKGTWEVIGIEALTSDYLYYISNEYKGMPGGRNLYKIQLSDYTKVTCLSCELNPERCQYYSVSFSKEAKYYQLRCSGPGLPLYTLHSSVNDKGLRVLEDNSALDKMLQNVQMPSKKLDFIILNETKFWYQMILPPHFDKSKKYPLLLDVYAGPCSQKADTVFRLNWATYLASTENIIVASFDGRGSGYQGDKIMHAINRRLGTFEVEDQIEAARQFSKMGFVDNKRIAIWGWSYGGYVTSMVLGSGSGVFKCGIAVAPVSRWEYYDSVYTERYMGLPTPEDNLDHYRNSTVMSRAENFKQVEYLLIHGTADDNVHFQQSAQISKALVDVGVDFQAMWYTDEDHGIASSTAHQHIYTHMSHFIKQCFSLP
The series can be described thus: DPP-IV inhibitory activity (Inhibitor Screening Kit MAK203). The series is classed as biochemical. The note with it: n.d. = activity not detected; mean ± SD; read-out: DPP-IV Inhibition (IC50). How it is done: The DPP-IV inhibitory activity was determined using the DPP-IV Inhibitor Screening Kit MAK203, according to the manufacturer’s instructions. […] After this time, the fluorescence was measured each 2 min at λexcitation and λemission of 360 and 460 nm, respectively, in the Infinite M200 Pro plate reader (Tecan Group AG). Three independent runs were performed for each sample. The results were expressed as IC50 value.

The test system of series [2] is T3, porcine pancreatic lipase type II.
T3 construct: porcine pancreatic lipase type II; purchased Sigma-Aldrich; host or cells: porcine pancreas tissue
The series can be described thus: Pancreatic lipase inhibitory activity. In kind it is biochemical. The note with it: control orlistat at 0.5 µM. As for the experimental part: The pancreatic lipase inhibitory activity was determined following the protocols previously described, with some modifications. […] Three independent runs were performed for each sample. The results were expressed as percentage of the negative control, considered as 100%.

Series [3] deals with T2, DPP-IV. Particulars: literature value; cited from earlier work.
Series [4] deals with α-glucosidase from Saccharomyces cerevisiae. Put plainly: α-glucosidase inhibitory activity. In kind it is biochemical. Particulars: control acarbose at 10 mM. As for the experimental part: The α-glucosidase inhibitory activity was determined as previously reported, with some modifications. […] Three independent runs were performed for each sample. The results were expressed as percentage of the negative control, considered as 100%.

For series [5], the system named is T4, α-amylase type VI-B from porcine pancreas.
T4 construct: α-amylase type VI-B from porcine pancreas; purchased Sigma-Aldrich; host or cells: porcine pancreas tissue
Put plainly: α-amylase inhibition assay. The series is classed as biochemical. Particulars: control acarbose at 10 mM. How it is done:
The α-amylase inhibition assay was carried out following the methods described by Subramanian et al. and Kumar et al., with some modifications. Then, 200 µL of mixture, containing α-amylase (800 mU), 0.125% starch, and peptide (100 µM) or standard (at different concentrations) in 0.1 M phosphate buffer (pH 6.9), was incubated at 37 °C for 30 min. After adding 100 µL of a solution containing 1% 3,5-dinitrosalicylic acid and 30% sodium potassium tartrate in 0.4 M NaOH, shaking, and incubating at 100 °C for 10 min, the absorbance was measured at 540 nm in an Infinite M200 Pro plate reader (Tecan Group AG). Three independent runs were performed for each sample. The results were expressed as percentage of the negative control, considered as 100%.

For SQLPGW [SQLPGW], in the series on SH-SY5Y cells, the “effect on cell viability (cytotoxicity)” value was “None of them, at the highest concentration assayed (100 µM), affected the cell viability”. Moreover, the IC50 on ACE from rabbit lung is 50.5 ± 0.95 µM.

For IQAEGGLT, the IC50 at α-glucosidase was 110 µM. AALWE [AALWE]: at DPP-IV [1], the IC50 came to 131 ± 2.34 µM. Moreover, the “effect on cell viability (cytotoxicity)” value in the series with SH-SY5Y cells is “None of them, at the highest concentration assayed (100 µM), affected the cell viability”. As for DGLGYY [DGLGYY], the “effect on cell viability (cytotoxicity)” value in the series on SH-SY5Y cells is “None of them, at the highest concentration assayed (100 µM), affected the cell viability”. Also, the IC50 on ACE from rabbit lung came out at 82.6 ± 0.58 µM.

`CCCCCCCCCCC[C@@H](C[C@@H]1OC(=O)[C@H]1CCCCCC)OC(=O)[C@H](CC(C)C)NC=O` [orlistat]: the “Pancreatic lipase Inhibition” value in series [2] is reported as 94.62 ± 0.90%. As to diprotin A, the IC50 on DPP-IV [3] was 24.7 µM. Regarding `N[C@@H](Cc1ccc(O)cc1)C(=O)N1CCC[C@H]1C(=O)N[C@@H](CO)C(=O)N[C@@H](Cc1ccc(O)cc1)C(=O)O` [YPSY] (H-YPSY-OH; N-terminus and C-terminus assumed), the IC50 at DPP-IV [1] turned out to be 32.6 ± 1.6 µM; at ACE from rabbit lung it was 115.6 ± 0.26 µM. Also, in the series on SH-SY5Y cells, the “effect on cell viability (cytotoxicity)” value is recorded as “None of them, at the highest concentration assayed (100 µM), affected the cell viability”. As to `C[C@H]1O[C@H](O[C@H]2[C@H](O)[C@@H](O)[C@@H](O[C@H]3[C@H](O)[C@@H](O)C(O)O[C@@H]3CO)O[C@@H]2CO)[C@H](O)[C@@H](O)[C@@H]1N[C@H]1C=C(CO)[C@@H](O)[C@H](O)[C@H]1O` (stereo partly shown) [acarbose], the “α-Glucosidase Inhibition” value in series [4] is listed as 62.36 ± 0.54%. Besides, in series [5], the “α-Amylase Inhibition” value came out at 75.05 ± 1.55%.

As for MFTGPY [MFTGPY], at DPP-IV [1], the IC50 worked out at 214 ± 2.83 µM. The “effect on cell viability (cytotoxicity)” value in the series on SH-SY5Y cells is “None of them, at the highest concentration assayed (100 µM), affected the cell viability”.

As a reminder, the IC50 is the concentration needed to halve the response being measured.
